Experimental data taken from publication PMC11240139, “Exploring the antitumor potential of novel quinoline derivatives via tubulin polymerization inhibition in breast cancer; design, synthesis and molecular docking” (RSC Advances, 2024).

Key:
[1] = test system: HCT-15 (colon cancer); test: NCI-60 SRB cytotoxicity screen; type: cell-based
[2] = test system: SF-539 (CNS cancer); test: NCI-60 SRB cytotoxicity screen; type: cell-based
[3] = test system: MDA-MB-468 (breast cancer); test: NCI-60 SRB cytotoxicity screen; type: cell-based
Outline: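 NCI-60 single-dose (10^−5 M) screen in MDA-MB-468 with SRB protein-stain read-out after 48 h exposure; cells TCA-fixed and absorbance read at 540 nm. Reported as GI%, with compounds meeting NCI activity criteria then run at five doses (0.01–100 μM).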

[4] = test system: SF-268 (CNS cancer); test: NCI-60 SRB cytotoxicity screen; type: cell-based
[5] = test system: T-47D (breast cancer); test: NCI-60 SRB cytotoxicity screen; type: cell-based
[6] = test system: BT-549 (breast cancer); test: NCI-60 SRB cytotoxicity screen; type: cell-based
[7] = test system: MDA-MB-231/ATCC (breast cancer); test: NCI-60 SRB cytotoxicity screen; type: cell-based
[8] = test system: OVCAR-5 (ovarian cancer); test: NCI-60 SRB cytotoxicity screen; type: cell-based
[9] = test system: HT29 (colon cancer); test: NCI-60 SRB cytotoxicity screen; type: cell-based
[10] = test system: IGROV1 (ovarian cancer); test: NCI-60 SRB cytotoxicity screen; type: cell-based
[11] = test system: SW-620 (colon cancer); test: NCI-60 SRB cytotoxicity screen; type: cell-based
[12] = test system: MCF7 (breast cancer); test: NCI-60 SRB cytotoxicity screen; type: cell-based
[13] = test system: UACC-257 (melanoma); test: NCI-60 SRB cytotoxicity screen; type: cell-based
[14] = molecular target: T1, tubulin (Sus scrofa, UniProt P02550+P02554); test: Tubulin polymerization inhibition assay; type: biochemical
T1 construct: purchased Cytoskeleton, USA
T1 sequence (P02554 whole entry): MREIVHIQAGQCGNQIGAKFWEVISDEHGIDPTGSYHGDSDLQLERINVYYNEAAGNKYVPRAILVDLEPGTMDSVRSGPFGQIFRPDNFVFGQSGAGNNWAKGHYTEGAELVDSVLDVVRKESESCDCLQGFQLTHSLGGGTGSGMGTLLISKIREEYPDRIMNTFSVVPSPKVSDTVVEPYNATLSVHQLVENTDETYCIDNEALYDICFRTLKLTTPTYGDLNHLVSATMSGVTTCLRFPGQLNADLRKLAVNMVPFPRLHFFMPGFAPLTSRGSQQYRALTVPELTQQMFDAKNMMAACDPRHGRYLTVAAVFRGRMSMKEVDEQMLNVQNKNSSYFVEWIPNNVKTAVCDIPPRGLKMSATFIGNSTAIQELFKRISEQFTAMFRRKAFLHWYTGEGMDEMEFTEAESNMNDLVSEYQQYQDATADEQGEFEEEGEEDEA
T1 sequence (P02550 whole entry): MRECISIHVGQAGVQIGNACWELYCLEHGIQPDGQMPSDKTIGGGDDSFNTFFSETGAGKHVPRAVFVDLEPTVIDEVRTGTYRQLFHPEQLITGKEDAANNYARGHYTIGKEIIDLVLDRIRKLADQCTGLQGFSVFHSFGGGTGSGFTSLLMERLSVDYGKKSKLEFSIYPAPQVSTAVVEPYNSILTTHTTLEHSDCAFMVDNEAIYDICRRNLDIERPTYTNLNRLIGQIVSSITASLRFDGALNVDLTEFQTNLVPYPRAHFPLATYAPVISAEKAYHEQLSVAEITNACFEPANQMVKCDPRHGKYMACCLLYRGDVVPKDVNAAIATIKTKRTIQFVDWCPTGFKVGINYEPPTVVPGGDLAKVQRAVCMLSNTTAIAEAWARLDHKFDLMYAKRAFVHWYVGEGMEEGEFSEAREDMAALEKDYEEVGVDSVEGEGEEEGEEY
Procedure: Tubulin polymerization inhibition assay was performed using Tubulin Polymerization Assay Kit (Cytoskeleton, USA). 2 mg mL^−1 tubulin was dissolved in 80 mM PIPES pH 6.9, 2.0 mM MgCl2, 0.5 mM EGTA, 1.0 mM GTP and 15% glycerol. A 96-well plate was warmed to 37 °C for 10 minutes. Serial dilutions of the test compounds were prepared. The assay components were mixed. Polymerization was monitored using a plate reader at 360 nm and emission at 420 nm at 37 °C every 1 min intervals for 60 min. A dose–response curve was generated and the IC50 for tubulin polymerization inhibition was calculated.

[15] = test system: NCI/ADR-RES (ovarian cancer); test: NCI-60 SRB cytotoxicity screen; type: cell-based
[16] = test system: OVCAR-3 (ovarian cancer); test: NCI-60 SRB cytotoxicity screen; type: cell-based
[17] = test system: EKVX (non-small cell lung cancer); test: NCI-60 SRB cytotoxicity screen; type: cell-based
[18] = test system: MOLT-4 (leukemia); test: NCI-60 SRB cytotoxicity screen; type: cell-based
[19] = test system: MALME-3M (melanoma); test: NCI-60 SRB cytotoxicity screen; type: cell-based
[20] = test system: 60 cancer cell lines (NCI); test: NCI-60 single-dose screen, overall verdict over the panel; type: cell-based; details: single dose 10 μM, whole panel
Outline: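 Compounds were tested at a single 10^−5 M dose across the NCI 60 cell line panel, with cells preincubated 24 h before treatment. Viability was measured by TCA fixation and sulforhodamine B staining, absorbance 540 nm. % cytotoxicity = [1 − (sample/negative control absorbance)] × 100.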

[21] = test system: SNB-19 (CNS cancer); test: NCI-60 SRB cytotoxicity screen; type: cell-based
[22] = test system: RXF 393 (renal cancer); test: NCI-60 SRB cytotoxicity screen; type: cell-based
[23] = test system: SK-OV-3 (ovarian cancer); test: NCI-60 SRB cytotoxicity screen; type: cell-based
[24] = test system: SF-295 (CNS cancer); test: NCI-60 SRB cytotoxicity screen; type: cell-based
[25] = test system: OVCAR-4 (ovarian cancer); test: NCI-60 SRB cytotoxicity screen; type: cell-based
[26] = test system: CCRF-CEM (leukemia); test: NCI-60 SRB cytotoxicity screen; type: cell-based
[27] = test system: SR (leukemia); test: NCI-60 SRB cytotoxicity screen; type: cell-based
[28] = Homo sapiens, HCT-15, five-dose assay
[29] = Homo sapiens, SF-539, five-dose assay
[30] = Homo sapiens, MDA-MB-468, five-dose assay
[31] = Homo sapiens, BT-549, five-dose assay
[32] = Homo sapiens, SW-620, five-dose assay
[33] = Homo sapiens, UACC-257, five-dose assay
[34] = Homo sapiens, five-dose assay, read-out: LC50 (the source's name)
[35] = Homo sapiens, single dose 10 μM, read-out: growth inhibition (GI%)
[36] = Homo sapiens, OVCAR-3, five-dose assay
[37] = Homo sapiens, SNB-19, five-dose assay
[38] = Homo sapiens, RXF 393, five-dose assay
[39] = Homo sapiens, SF-295, five-dose assay

## CCc1cccc2cc(-c3cc(-c4cc(OC)c(OC)c(OC)c4)[nH]c(=O)c3C#N)c(Cl)nc12 [Compound 4c, 4-(2-Chloro-8-ethylquinolin-3-yl)-2-oxo-6-(3,4,5-trimethoxyphenyl)-1,2-dihydropyridine-3-carbonitrile]
[1]; HCT-15, five-dose assay
  TGI: >100 µM
[1]; [28]
  GI50: 27.6 µM
  LC50 (concentration causing 50% net cell kill): > 100 µM
[1]; Homo sapiens, HCT-15, single dose 10 μM, read-out: growth inhibition (GI%)
  inhibition at 10 µM: 35.8%
[2]; [29]
  GI50: 12 µM
  LC50 (50% lethal concentration): 51.3 µM
[2]; Homo sapiens, SF-539, single dose 10 μM, read-out: growth inhibition (GI%)
  inhibition at 10 µM: > 100%
[2]; SF-539, five-dose assay
  TGI: 24.80 µM
[2]; SF-539, single dose 10 μM
  growth inhibition (GI%): lethal effect
[3]; [30]
  GI50: 12.7 µM
  LC50 (concentration killing 50% of cells): > 100 µM
[3]; Homo sapiens, MDA-MB-468, single dose 10 μM, read-out: growth inhibition (GI%)
  inhibition at 10 µM: 51.9%
[3]; MDA-MB-468, five-dose assay
  TGI: 61.60 µM
[4]; Homo sapiens, SF-268, five-dose assay
  GI50: 13.8 µM
[4]; Homo sapiens, SF-268, five-dose assay, read-out: LC50 (the source's name)
  CC50: > 100 µM
[4]; Homo sapiens, SF-268, single dose 10 μM, read-out: growth inhibition (GI%)
  inhibition at 10 µM: 34.4%
[4]; SF-268, five-dose assay
  TGI: >100 µM
[5]; Homo sapiens, T47D, five-dose assay
  GI50: 12.2 µM
[5]; Homo sapiens, T47D, five-dose assay, read-out: LC50 (the source's name)
  CC50: > 100 µM
[5]; Homo sapiens, T47D, single dose 10 μM, read-out: growth inhibition (GI%)
  inhibition at 10 µM: 91.6%
[5]; five-dose assay
  TGI: 64.10 µM
[6]; BT-549, five-dose assay
  TGI: 28.10 µM
[6]; [31]
  GI50: 4.11 µM
  LC50: > 100 µM
[6]; Homo sapiens, BT-549, single dose 10 μM, read-out: growth inhibition (GI%)
  inhibition at 10 µM: 57.5%
[7]; Homo sapiens, MDA-MB-231
  GI50: 14.5 µM
[7]; Homo sapiens, MDA-MB-231, read-out: growth inhibition (GI%)
  inhibition at 10 µM: > 100%
[7]; Homo sapiens, MDA-MB-231/ATCC, five-dose assay, read-out: LC50 (the source's name)
  CC50: 69.8 µM
[7]; MDA-MB-231/ATCC, five-dose assay
  TGI: 31.80 µM
[7]; MDA-MB-231/ATCC, single dose 10 μM
  growth inhibition (GI%): lethal effect
[8]; Homo sapiens, OVCAR-5, five-dose assay
  GI50: 48.4 µM
[8]; Homo sapiens, OVCAR-5, five-dose assay, read-out: LC50 (the source's name)
  CC50: > 100 µM
[8]; Homo sapiens, OVCAR-5, single dose 10 μM, read-out: growth inhibition (GI%)
  inhibition at 10 µM: 33.3%
[8]; OVCAR-5, five-dose assay
  TGI: >100 µM
[9]; HT29, five-dose assay
  TGI: >100 µM
[9]; Homo sapiens, HT-29, HT29, five-dose assay
  GI50: 32.1 µM
[9]; Homo sapiens, HT-29, HT29, five-dose assay, read-out: LC50 (the source's name)
  CC50: > 100 µM
[9]; Homo sapiens, HT-29, HT29, single dose 10 μM, read-out: growth inhibition (GI%)
  inhibition at 10 µM: < 10%
[10]; Homo sapiens, IGROV-1, IGROV1, five-dose assay
  GI50: 12.2 µM
[10]; Homo sapiens, IGROV-1, IGROV1, five-dose assay, read-out: LC50 (the source's name)
  CC50: > 100 µM
[10]; Homo sapiens, IGROV-1, IGROV1, single dose 10 μM, read-out: growth inhibition (GI%)
  inhibition at 10 µM: 66.3%
[10]; IGROV1, five-dose assay
  TGI: 46.30 µM
[11]; [32]
  GI50: 27.5 µM
  LC50 (lethal concentration, 50% net cell kill): > 100 µM
[11]; Homo sapiens, SW-620, single dose 10 μM, read-out: growth inhibition (GI%)
  inhibition at 10 µM: 17.4%
[11]; SW-620, five-dose assay
  TGI: >100 µM
[12]; Homo sapiens, MCF7, five-dose assay
  GI50: 24 µM
[12]; Homo sapiens, MCF7, five-dose assay, read-out: LC50 (the source's name)
  CC50: > 100 µM
[12]; Homo sapiens, MCF7, single dose 10 μM, read-out: growth inhibition (GI%)
  inhibition at 10 µM: 54.8%
[12]; MCF7, five-dose assay
  TGI: >100 µM
[13]; [33]
  GI50: 42.6 µM
  LC50: > 100 µM
[13]; Homo sapiens, UACC-257, single dose 10 μM, read-out: growth inhibition (GI%)
  inhibition at 10 µM: 26.5%
[13]; UACC-257, five-dose assay
  TGI: >100 µM
[14]
  IC50: 17 ± 0.3 µM
[15]; Homo sapiens, five-dose assay
  GI50: 44.9 µM
[15]; [34]
  CC50: > 100 µM
[15]; [35]
  inhibition at 10 µM: 59.9%
[15]; five-dose assay
  TGI: >100 µM
[16]; [36]
  GI50: 14.2 µM
  LC50 (50% lethal concentration): 62.3 µM
[16]; Homo sapiens, OVCAR-3, single dose 10 μM, read-out: growth inhibition (GI%)
  inhibition at 10 µM: > 100%
[16]; OVCAR-3, five-dose assay
  TGI: 29.80 µM
[16]; OVCAR-3, single dose 10 μM
  growth inhibition (GI%): lethal effect
[17]; Homo sapiens, five-dose assay
  GI50: 28.6 µM
[17]; [34]
  CC50: > 100 µM
[17]; [35]
  inhibition at 10 µM: 50.1%
[17]; five-dose assay
  TGI: >100 µM
[18]; Homo sapiens, MOLT-4, five-dose assay
  GI50: 8.17 µM
[18]; Homo sapiens, MOLT-4, five-dose assay, read-out: LC50 (the source's name)
  CC50: > 100 µM
[18]; Homo sapiens, MOLT-4, single dose 10 μM, read-out: growth inhibition (GI%)
  inhibition at 10 µM: 76.4%
[18]; MOLT-4, five-dose assay
  TGI: 79.90 µM
[19]; Homo sapiens, five-dose assay
  GI50: 10.1 µM
[19]; [34]
  CC50: > 100 µM
[19]; [35]
  inhibition at 10 µM: 89.4%
[19]; five-dose assay
  TGI: 40.00 µM
[20]
  cytotoxic activity over the cell lines (in words): highest level of cytotoxic activity
[21]; [37]
  GI50: 9.25 µM
  LC50 (50% lethal concentration): > 100 µM
[21]; Homo sapiens, SNB-19, single dose 10 μM, read-out: growth inhibition (GI%)
  inhibition at 10 µM: 89.6%
[21]; SNB-19, five-dose assay
  TGI: 50.90 µM
[22]; [38]
  GI50: 2.21 µM
  LC50: 35.4 µM
[22]; Homo sapiens, RXF 393, single dose 10 μM, read-out: growth inhibition (GI%)
  inhibition at 10 µM: > 100%
[22]; RXF 393, five-dose assay
  TGI: 6.69 µM
[22]; RXF 393, single dose 10 μM
  growth inhibition (GI%): lethal effect
[23]; Homo sapiens, SK-OV-3, five-dose assay
  GI50: 26 µM
[23]; Homo sapiens, SK-OV-3, five-dose assay, read-out: LC50 (the source's name)
  CC50: > 100 µM
[23]; Homo sapiens, SK-OV-3, single dose 10 μM, read-out: growth inhibition (GI%)
  inhibition at 10 µM: 61.4%
[23]; SK-OV-3, five-dose assay
  TGI: >100 µM
[24]; [39]
  GI50: 19.4 µM
  LC50: > 100 µM
[24]; Homo sapiens, SF-295, single dose 10 μM, read-out: growth inhibition (GI%)
  inhibition at 10 µM: 96.4%
[24]; SF-295, five-dose assay
  TGI: >100 µM
[25]; Homo sapiens, OVCAR-4, five-dose assay
  GI50: 17.2 µM
[25]; Homo sapiens, OVCAR-4, five-dose assay, read-out: LC50 (the source's name)
  CC50: > 100 µM
[25]; Homo sapiens, OVCAR-4, single dose 10 μM, read-out: growth inhibition (GI%)
  inhibition at 10 µM: > 100%
[25]; OVCAR-4, five-dose assay
  TGI: >100 µM
[25]; OVCAR-4, single dose 10 μM
  growth inhibition (GI%): lethal effect
[26]; Homo sapiens, five-dose assay
  GI50: 12 µM
  LC50: > 100 µM
[26]; [35]
  inhibition at 10 µM: 80.4%
[26]; five-dose assay
  TGI: >100 µM
[27]; five-dose assay
  GI50: 5.7 µM
  LC50: > 100 µM
  TGI: >100 µM
[27]; single dose 10 μM, read-out: growth inhibition (GI%)
  inhibition at 10 µM: 77.3%
